Results reported in patent US8404677B2, “Kinase inhibitors” (Genosco, priority 2009, dated 2013).

Experiments:
ALK = target: T1, ALK (Homo sapiens, UniProt Q9UM73); test: In vitro kinase inhibition, Ambit Biosciences panel; assay type: binding; settings: lower numbers indicate stronger activities
T1 construct: purchased Ambit Biosciences
Method: (§1) Up to 518 different kinases have been identified in humans. They act on small molecules such as lipids, carbohydrates, amino acids, and nucleotides. To determine the scope of inhibitory effects of a representative compound of Formula (I) on known kinases, Compound 6 was tested against 104 commercially available kinases (Ambit Biosciences™) in vitro. 104 kinases included ABL1(E255K)-phosphorylated, ABL1(T315I)-phosphorylated, ABL1-phosphorylated, ACVR1B, ADCK3, AKT1, AKT2, ALK, AURKA, AURKB, AXL, BMPR2, BRAF, BRAF(V600E), BTK, CDK11, CDK2, CDK3, CDK7, CDK9, CHEK1, CSF1R, CSNK1D, CSNK1G2, DCAMKL1, DYRK1B, EGFR, EGFR(L858R), EPHA2, ERBB2, ERBB4, ERK1, FAK, FGFR2, FGFR3, FLT1, FLT3, FLT4, GSK3B, IGF1R, IKK-α, IKK-β, INSR, JAK2(JH1domain-catalytic), JAK3(JH1domain-catalytic), JNK1, JNK2, JNK3, KIT, KIT(D816V), KIT(V559D,T670I), LKB1, LRRK2, LRRK2(G2019S), MAP3K4, MAPKAPK2, MARK3, MEK1, MEK2, MET, MKNK1, MKNK2, MLK1, MTOR, p38-alpha, p38-beta, PAK1, PAK2, PAK4, PCTK1, PDGFRA, PDGFRB, PDPK1, PIK3C2B, PIK3CA, PIK3CG, PIM1, PIM2, PIM3, PKAC-alpha, PLK1, PLK3, PLK4, PRKCE, PYK2, RAFT, RET, RIOK2, ROCK2, RSK2, SNARK, SRC, SRPK3, SYK, TAK1, TGFBR1, TIE2, TRKA, TSSK1B, TYK2(JH1domain-catalytic), ULK2, VEGFR2, YANK3 and ZAP70.
(§2) Inhibition activity of Compound 6 was reported as percent control where lower numbers indicate stronger activities. […] Conventionally, the percent control of less than 35 is deemed to be significant inhibition of kinase activity as the numeric value 35 is frequently used as a threshold.

AURKA = target: T2, AURKA (Homo sapiens, UniProt O14965); test: as above; assay type: binding; settings: lower numbers indicate stronger activities
T2 construct: purchased Ambit Biosciences
Method: as §1, §2

AXL = target: T3, AXL (Homo sapiens, UniProt P30530); test: as above; assay type: binding; settings: lower numbers indicate stronger activities
T3 construct: purchased Ambit Biosciences
Method: as §1, §2

BMPR2 = target: T4, BMPR2 (Homo sapiens, UniProt Q13873); test: as above; assay type: binding; settings: lower numbers indicate stronger activities
T4 construct: purchased Ambit Biosciences
Method: as §1, §2

CSF1R = target: T5, CSF1R (Homo sapiens, UniProt P07333); test: as above; assay type: binding; settings: lower numbers indicate stronger activities
T5 construct: purchased Ambit Biosciences
Method: as §1, §2

FAK = target: T6, FAK (Homo sapiens, UniProt Q05397); test: as above; assay type: binding; settings: lower numbers indicate stronger activities
T6 construct: purchased Ambit Biosciences
Method: as §1, §2

FLT3 = target: T7, FLT3 (Homo sapiens, UniProt P36888); test: as above; assay type: binding; settings: lower numbers indicate stronger activities
T7 construct: purchased Ambit Biosciences
Method: as §1, §2

JAK2 = target: T8, JAK2 (Homo sapiens, UniProt O60674); test: as above; assay type: binding; settings: lower numbers indicate stronger activities
T8 construct: JAK2(JH1domain-catalytic), JAK3(JH1domain-catalytic); purchased Ambit Biosciences
Method: as §1, §2

JAK3 = target: T9, JAK3 (Homo sapiens, UniProt P52333); test: as above; assay type: binding; settings: lower numbers indicate stronger activities
T9 construct: JAK2(JH1domain-catalytic), JAK3(JH1domain-catalytic); purchased Ambit Biosciences
Method: as §1, §2

JNK1 = target: T10, JNK1 (Homo sapiens, UniProt P45983); test: as above; assay type: binding; settings: lower numbers indicate stronger activities
T10 construct: purchased Ambit Biosciences
Method: as §1, §2

JNK2 = target: T11, JNK2 (Homo sapiens, UniProt P45984); test: as above; assay type: binding; settings: lower numbers indicate stronger activities
T11 construct: purchased Ambit Biosciences
Method: as §1, §2

JNK3 = target: T12, JNK3 (Homo sapiens, UniProt P53779); test: as above; assay type: binding; settings: lower numbers indicate stronger activities
T12 construct: purchased Ambit Biosciences
Method: as §1, §2

KIT = target: T13, KIT (Homo sapiens, UniProt P10721); test: as above; assay type: binding; settings: lower numbers indicate stronger activities
T13 construct: purchased Ambit Biosciences
Method: as §1, §2

KIT(D816V) = target: T14, KIT(D816V) (Homo sapiens, UniProt P10721, D816V); test: as above; assay type: binding; settings: lower numbers indicate stronger activities
T14 construct: purchased Ambit Biosciences
Method: as §1, §2

LKB1 = target: T15, LKB1 (Homo sapiens, UniProt Q15831); test: as above; assay type: binding; settings: lower numbers indicate stronger activities
T15 construct: purchased Ambit Biosciences
Method: as §1, §2

LRRK2 = target: T16, LRRK2 (Homo sapiens, UniProt Q5S007); test: as above; assay type: binding; settings: lower numbers indicate stronger activities
T16 construct: purchased Ambit Biosciences
Method: as §1, §2

LRRK2(G2019S) = target: T17, LRRK2(G2019S) (Homo sapiens, UniProt Q5S007, G2019S); test: as above; assay type: binding; settings: lower numbers indicate stronger activities
T17 construct: purchased Ambit Biosciences
Method: as §1, §2

MLK1 = target: T18, MLK1 (Homo sapiens, UniProt P80192); test: as above; assay type: binding; settings: lower numbers indicate stronger activities
T18 construct: purchased Ambit Biosciences
Method: as §1, §2

PAK4 = target: T19, PAK4 (Homo sapiens, UniProt O96013); test: as above; assay type: binding; settings: lower numbers indicate stronger activities
T19 construct: purchased Ambit Biosciences
Method: as §1, §2

PDGFRB = target: T20, PDGFRB (Homo sapiens, UniProt P09619); test: as above; assay type: binding; settings: lower numbers indicate stronger activities
T20 construct: purchased Ambit Biosciences
Method: as §1, §2

PLK4 = target: T21, PLK4 (Homo sapiens, UniProt O00444); test: as above; assay type: binding; settings: lower numbers indicate stronger activities
T21 construct: purchased Ambit Biosciences
Method: as §1, §2

RET = target: T22, RET (Homo sapiens, UniProt P07949); test: as above; assay type: binding; settings: lower numbers indicate stronger activities
T22 construct: purchased Ambit Biosciences
Method: as §1, §2

RSK2 = target: T23, RSK2 (Homo sapiens, UniProt P51812); test: as above; assay type: binding; settings: lower numbers indicate stronger activities
T23 construct: RSK2 (Kin.Dom.1-N-terminal); purchased Ambit Biosciences
Method: as §1, §2

SNARK = target: T24, SNARK (Homo sapiens, UniProt Q9H093); test: as above; assay type: binding; settings: lower numbers indicate stronger activities
T24 construct: purchased Ambit Biosciences
Method: as §1, §2

SRPK3 = target: T25, SRPK3 (Homo sapiens, UniProt Q9UPE1); test: as above; assay type: binding; settings: lower numbers indicate stronger activities
T25 construct: purchased Ambit Biosciences
Method: as §1, §2

TAK1 = target: T26, TAK1 (Homo sapiens, UniProt O43318); test: as above; assay type: binding; settings: lower numbers indicate stronger activities
T26 construct: purchased Ambit Biosciences
Method: as §1, §2

TYK2 = target: T27, TYK2 (Homo sapiens, UniProt P29597); test: as above; assay type: binding; settings: lower numbers indicate stronger activities
T27 construct: TYK2(JH1domain-catalytic); purchased Ambit Biosciences
Method: as §1, §2

CCRF-CEM = test: cells; assay type: cell-based; settings: CCRF-CEM (Leukemia)

T17 sequence (Q5S007 whole entry G2019S): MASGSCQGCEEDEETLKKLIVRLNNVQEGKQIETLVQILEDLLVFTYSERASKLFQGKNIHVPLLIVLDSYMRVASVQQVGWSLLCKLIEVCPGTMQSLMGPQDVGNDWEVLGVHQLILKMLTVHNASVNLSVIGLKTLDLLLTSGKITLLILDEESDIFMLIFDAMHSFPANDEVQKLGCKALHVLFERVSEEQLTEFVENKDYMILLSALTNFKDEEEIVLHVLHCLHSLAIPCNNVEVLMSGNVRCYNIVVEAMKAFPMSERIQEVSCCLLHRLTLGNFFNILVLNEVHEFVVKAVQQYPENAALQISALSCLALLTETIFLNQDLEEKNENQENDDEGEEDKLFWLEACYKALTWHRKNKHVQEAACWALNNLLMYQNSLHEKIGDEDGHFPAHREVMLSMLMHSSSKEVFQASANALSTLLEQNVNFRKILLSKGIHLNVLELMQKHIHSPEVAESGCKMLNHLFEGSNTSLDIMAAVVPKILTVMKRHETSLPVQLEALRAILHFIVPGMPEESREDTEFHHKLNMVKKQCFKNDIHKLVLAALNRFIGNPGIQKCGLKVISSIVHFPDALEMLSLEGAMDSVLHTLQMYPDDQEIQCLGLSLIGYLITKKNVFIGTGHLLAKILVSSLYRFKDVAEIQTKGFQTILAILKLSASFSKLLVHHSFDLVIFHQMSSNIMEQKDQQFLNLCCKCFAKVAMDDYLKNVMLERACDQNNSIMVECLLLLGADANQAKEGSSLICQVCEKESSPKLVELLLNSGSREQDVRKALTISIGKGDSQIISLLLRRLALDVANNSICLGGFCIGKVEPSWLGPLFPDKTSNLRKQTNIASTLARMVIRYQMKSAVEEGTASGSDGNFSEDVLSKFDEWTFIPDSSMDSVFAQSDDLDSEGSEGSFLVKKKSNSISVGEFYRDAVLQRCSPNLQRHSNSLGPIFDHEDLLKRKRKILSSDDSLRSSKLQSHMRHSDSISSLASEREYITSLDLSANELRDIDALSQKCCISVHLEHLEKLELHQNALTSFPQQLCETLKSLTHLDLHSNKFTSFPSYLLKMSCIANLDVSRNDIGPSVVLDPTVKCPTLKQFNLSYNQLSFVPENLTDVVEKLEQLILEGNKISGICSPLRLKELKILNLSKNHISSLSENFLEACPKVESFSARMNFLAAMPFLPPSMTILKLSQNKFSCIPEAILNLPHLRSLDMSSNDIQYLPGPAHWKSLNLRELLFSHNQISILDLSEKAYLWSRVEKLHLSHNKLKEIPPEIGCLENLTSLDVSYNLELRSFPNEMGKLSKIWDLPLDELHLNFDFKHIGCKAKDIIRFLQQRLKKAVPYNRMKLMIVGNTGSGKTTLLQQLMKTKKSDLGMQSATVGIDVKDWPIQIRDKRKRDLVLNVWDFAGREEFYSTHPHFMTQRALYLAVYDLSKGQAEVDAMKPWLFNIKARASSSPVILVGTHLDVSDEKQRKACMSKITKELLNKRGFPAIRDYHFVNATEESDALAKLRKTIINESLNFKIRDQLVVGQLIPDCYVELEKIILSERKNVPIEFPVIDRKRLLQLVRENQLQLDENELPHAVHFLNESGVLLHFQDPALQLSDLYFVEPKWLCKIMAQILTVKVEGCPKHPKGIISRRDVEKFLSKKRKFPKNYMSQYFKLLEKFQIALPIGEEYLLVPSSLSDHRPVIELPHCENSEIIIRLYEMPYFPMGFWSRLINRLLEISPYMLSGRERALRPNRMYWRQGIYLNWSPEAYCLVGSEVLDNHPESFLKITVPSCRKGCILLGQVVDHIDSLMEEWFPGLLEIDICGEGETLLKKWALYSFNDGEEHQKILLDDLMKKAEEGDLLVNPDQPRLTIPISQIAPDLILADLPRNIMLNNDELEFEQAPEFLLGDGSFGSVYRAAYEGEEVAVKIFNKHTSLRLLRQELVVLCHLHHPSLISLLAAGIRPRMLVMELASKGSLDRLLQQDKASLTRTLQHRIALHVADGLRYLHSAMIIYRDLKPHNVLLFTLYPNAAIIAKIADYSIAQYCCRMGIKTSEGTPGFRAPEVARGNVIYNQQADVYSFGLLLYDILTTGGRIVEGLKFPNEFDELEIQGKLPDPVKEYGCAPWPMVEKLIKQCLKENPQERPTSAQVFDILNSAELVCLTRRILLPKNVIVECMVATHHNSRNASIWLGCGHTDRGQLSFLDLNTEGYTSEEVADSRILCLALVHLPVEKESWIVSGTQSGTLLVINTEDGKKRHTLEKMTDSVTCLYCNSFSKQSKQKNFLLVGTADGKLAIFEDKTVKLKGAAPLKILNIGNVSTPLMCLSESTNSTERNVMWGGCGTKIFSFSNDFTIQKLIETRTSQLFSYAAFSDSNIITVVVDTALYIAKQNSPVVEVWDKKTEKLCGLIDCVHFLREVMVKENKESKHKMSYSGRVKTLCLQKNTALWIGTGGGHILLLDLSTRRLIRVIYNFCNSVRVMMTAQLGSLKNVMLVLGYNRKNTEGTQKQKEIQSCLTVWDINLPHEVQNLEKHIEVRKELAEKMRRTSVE
T16 sequence (Q5S007 whole entry): as the sequence (Q5S007 whole entry G2019S) above, with S2019G counted along it
T4 sequence (Q13873 27-1038): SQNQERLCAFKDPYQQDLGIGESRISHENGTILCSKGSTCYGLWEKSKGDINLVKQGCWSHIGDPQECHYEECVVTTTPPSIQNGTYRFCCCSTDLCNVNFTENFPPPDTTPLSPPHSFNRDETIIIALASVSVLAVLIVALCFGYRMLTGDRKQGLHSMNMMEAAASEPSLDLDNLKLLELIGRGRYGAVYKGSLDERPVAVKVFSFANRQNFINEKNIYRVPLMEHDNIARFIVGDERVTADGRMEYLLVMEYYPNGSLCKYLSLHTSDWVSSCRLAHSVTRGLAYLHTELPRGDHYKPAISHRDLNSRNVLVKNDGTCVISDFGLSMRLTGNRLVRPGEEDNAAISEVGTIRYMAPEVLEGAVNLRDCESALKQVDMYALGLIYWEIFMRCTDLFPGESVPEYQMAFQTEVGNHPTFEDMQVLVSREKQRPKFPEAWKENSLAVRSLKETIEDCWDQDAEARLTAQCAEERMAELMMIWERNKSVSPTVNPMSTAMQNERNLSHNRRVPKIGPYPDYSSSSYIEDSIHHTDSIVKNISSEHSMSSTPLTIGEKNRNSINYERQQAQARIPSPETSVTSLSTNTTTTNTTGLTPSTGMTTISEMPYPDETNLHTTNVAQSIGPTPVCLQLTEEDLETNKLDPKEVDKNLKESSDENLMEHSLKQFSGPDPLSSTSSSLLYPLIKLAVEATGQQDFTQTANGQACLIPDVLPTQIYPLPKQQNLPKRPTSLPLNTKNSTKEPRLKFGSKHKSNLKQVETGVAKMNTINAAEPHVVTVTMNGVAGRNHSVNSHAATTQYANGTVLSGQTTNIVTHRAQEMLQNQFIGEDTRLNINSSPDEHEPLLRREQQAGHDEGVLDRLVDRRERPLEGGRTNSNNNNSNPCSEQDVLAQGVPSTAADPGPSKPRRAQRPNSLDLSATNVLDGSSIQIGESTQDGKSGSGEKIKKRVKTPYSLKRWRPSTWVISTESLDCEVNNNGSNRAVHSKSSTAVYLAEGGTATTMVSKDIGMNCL
T9 sequence (P52333 822-1111 limits assumed): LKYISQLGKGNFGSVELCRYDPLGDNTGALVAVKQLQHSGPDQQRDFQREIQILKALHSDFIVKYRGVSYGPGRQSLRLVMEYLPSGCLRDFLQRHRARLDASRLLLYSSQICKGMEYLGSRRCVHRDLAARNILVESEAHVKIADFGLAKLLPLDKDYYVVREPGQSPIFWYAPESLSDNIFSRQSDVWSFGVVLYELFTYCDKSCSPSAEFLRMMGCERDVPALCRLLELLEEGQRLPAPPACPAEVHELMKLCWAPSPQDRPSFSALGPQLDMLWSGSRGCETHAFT
T8 sequence (O60674 849-1124 limits assumed): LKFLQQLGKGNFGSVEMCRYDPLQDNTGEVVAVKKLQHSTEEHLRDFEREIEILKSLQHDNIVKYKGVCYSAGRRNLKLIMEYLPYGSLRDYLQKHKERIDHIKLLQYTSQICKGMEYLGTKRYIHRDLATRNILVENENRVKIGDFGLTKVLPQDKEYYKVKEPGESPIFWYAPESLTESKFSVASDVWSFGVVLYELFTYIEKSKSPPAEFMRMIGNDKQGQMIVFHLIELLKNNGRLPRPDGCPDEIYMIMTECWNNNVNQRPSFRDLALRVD
T19 sequence (O96013 whole entry): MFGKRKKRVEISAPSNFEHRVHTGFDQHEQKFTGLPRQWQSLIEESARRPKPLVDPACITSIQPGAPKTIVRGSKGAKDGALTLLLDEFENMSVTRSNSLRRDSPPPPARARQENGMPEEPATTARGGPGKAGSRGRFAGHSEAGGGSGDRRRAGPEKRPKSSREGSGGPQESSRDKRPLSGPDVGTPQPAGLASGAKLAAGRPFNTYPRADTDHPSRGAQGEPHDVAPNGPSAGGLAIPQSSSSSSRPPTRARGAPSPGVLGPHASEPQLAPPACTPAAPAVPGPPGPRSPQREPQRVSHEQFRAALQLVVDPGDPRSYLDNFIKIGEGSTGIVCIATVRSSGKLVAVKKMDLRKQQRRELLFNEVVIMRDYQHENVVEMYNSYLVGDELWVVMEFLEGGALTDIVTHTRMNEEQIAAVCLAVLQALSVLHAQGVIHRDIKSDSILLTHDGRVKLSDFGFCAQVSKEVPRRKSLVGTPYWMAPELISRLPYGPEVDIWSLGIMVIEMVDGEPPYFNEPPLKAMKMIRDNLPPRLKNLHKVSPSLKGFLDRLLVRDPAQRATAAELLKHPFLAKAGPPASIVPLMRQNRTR
T27 sequence (P29597 897-1176 limits assumed): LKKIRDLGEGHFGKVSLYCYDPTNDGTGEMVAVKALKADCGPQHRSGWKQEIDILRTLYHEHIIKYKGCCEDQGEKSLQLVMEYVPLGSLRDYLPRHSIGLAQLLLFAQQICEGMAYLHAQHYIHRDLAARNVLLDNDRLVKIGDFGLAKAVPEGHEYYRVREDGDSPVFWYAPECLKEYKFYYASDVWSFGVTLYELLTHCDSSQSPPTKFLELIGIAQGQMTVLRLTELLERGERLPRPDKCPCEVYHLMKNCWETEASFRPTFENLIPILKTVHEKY

O=c1[nH]ccc2nc(N3CCC(O)CC3)nc(Nc3cccc(C(F)(F)F)c3)c12 [Compound 6, 2-(4-hydroxypiperidin-1-yl)-4-(3-(trifluoromethyl)phenylamino)pyrido[4,3-d]pyrimidine-5(6H)-one]
Percent of control (lower = stronger binding) (ALK): 29%
% inhibition (reported as percent control) (AURKA): 31%
% inhibition (reported as percent control) (AXL): 11%
% inhibition (reported as percent control) (BMPR2): 0%
% inhibition (reported as percent control) (CSF1R): 5.2%
% inhibition (reported as percent control) (FAK): 34%
% inhibition (reported as percent control) (FLT3): 28%
% inhibition (reported as percent control) (JAK2): 3%
% inhibition (reported as percent control) (JAK3): 4.4%
% inhibition (reported as percent control) (JNK1): 4.8%
% inhibition (reported as percent control) (JNK2): 25%
% inhibition (reported as percent control) (JNK3): 7%
% inhibition (reported as percent control) (KIT): 11%
% inhibition (reported as percent control) (KIT(D816V)): 9.3%
% inhibition (reported as percent control) (LKB1): 18%
% inhibition (reported as percent control) (LRRK2): 2.2%
% inhibition (reported as percent control) (LRRK2(G2019S)): 2.2%
% inhibition (reported as percent control) (MLK1): 2.8%
% inhibition (reported as percent control) (PAK4): 21%
% inhibition (reported as percent control) (PDGFRB): 19%
% inhibition (reported as percent control) (PLK4): 13%
% inhibition (reported as percent control) (RET): 16%
% inhibition (reported as percent control) (RSK2): 18%
% inhibition (reported as percent control) (SNARK): 3.6%
% inhibition (reported as percent control) (SRPK3): 2.6%
% inhibition (reported as percent control) (TAK1): 1%
% inhibition (reported as percent control) (TYK2): 16%
TGI (CCRF-CEM): 100 µM
GI50 (CCRF-CEM; Homo sapiens): 2.09 µM
IC50 (CCRF-CEM; Homo sapiens): 4.07 µM
LC50 (CCRF-CEM; Homo sapiens): 100 µM
